Test results: BigSolDB 2.1

O=C(/C=C/C=C/c1ccc2c(c1)OCO2)N1CCCCC1
solubility (mole fraction)
Conditions	298.2 K	303.2 K	308.2 K	313.2 K	318.2 K
in DMSO	0.0287	0.0303	0.0321	0.0339	0.0359
in ethanol	0.00899	0.01	0.011	0.012	0.0134
in ethyl acetate	0.00985	0.011	0.0123	0.0137	0.0154
in ethylene glycol	0.00386	0.00444	0.00515	0.00597	0.0067
in isopropanol	0.0123	0.0136	0.0149	0.0164	0.0182
in methanol	0.00527	0.00584	0.00648	0.00719	0.00791
in n-butanol	0.0156	0.0169	0.0183	0.0201	0.022
in propylene glycol	0.01	0.0111	0.0122	0.0134	0.0147
in sec-butanol	0.0158	0.017	0.0187	0.0206	0.0225
in transcutol	0.0797	0.0826	0.0852	0.0883	0.0917
in water	1.07e-05	1.18e-05	1.29e-05	1.41e-05	1.52e-05

Conditions	solubility (mole fraction)
in PEG-400, 298.2 K	0.0518
in PEG-400, 303.2 K	0.0584
in PEG-400, 308.2 K	0.0652
in PEG-400, 313.2 K	0.0718
in PEG-400, 318.2 K	0.0788
